Laboratory results reported in patent publication US10213451B2, “Methods and compounds for modulating the secretion or expression of adhesion proteins or angiopoietins of cells” (PACIFIC ARROW LIMITED, priority 2004, dated 2019).
≈ marks a conversion by molar mass, not a printed value.

System: ES2(ovarian) cells
Assay: MTT assay ES2
Format: cell-based, human
Protocol: MTT Assay. The procedure for MTT assay followed the method described by Carmichael et al. (1987) with modifications. The cells were seeded into a 96-well plate at concentration of 10,000/well for HTB-9, HeLa, H460, HCT116, T98G and OVCAR-3), 15,000/well for DU145, MCF-7, HepG2 and U2OS), and 40,000/well for K562 for 24 hours before drug-treatment. The cells were then exposed to the drugs for 48 hours (72 hours for HepG2 and U2OS, and 96 hours for MCF-7). After the drug-treatment, MTT (0.5 mg/mL) was added to cultures and incubated for an hour. The formazan (product of the reduction of tetrazolium by viable cells) formed and was dissolved with DMSO and the O.D. at 490 nm, and was measured by an ELISA reader. The MTT level of the cells before drug-treatment was also measured (T0). The % cell-growth (% G) is calculated as: % G=(TD−T0/TC−T0)×100(1), where TC or TD represents O.D. readings of control or drug-treated cells. When T0>TD, then the cytotoxicity (LC) expressed as % of the control is calculated as: % LC=(TD−T0/T0)×100(2).
Methods: ES2 cells were exposed to (i) Xanifolia-Y with concentrations of 40, 20, 10, 5, 2.5, and 1.25 ug/ml; or (ii) Paclitaxel with concentrations of […]; or (iii) Combined Xanifolia-Y and Paclitaxel with concentrations of each drug in same order (for example, 40 ug/ml Y plus 10 ng/ml T; 20 ug/ml Y plus 5 ng/ml T, etc. please see FIG. 28). Cells growth under these conditions was determined by the MTT assay.
Drug-treatment: cells cultures were replaced with fresh RPMI medium containing Xanifolia-Y (10 ug/ml final concentration) or DMSO (as control) at 0 hour. At 2, and 18 hour, aliquot of culture medium was taken out for Fibronectin determination (Western blot method). Cell viability at 18 hours was determined by MTT assay. Cultures were replaced with RPMI medium with MTT and incubated for an hour. The formation of formazan was dissolved in DMSO and OD at 570 nm was measured.

Compound | IC50 (ES2 cells) [µg/mL] | IC50 (Homo sapiens, ES-2) [µg/mL]
CC1OC(OC2C(OC3C(OC4C(O)C(C(=O)O)OC(OC5CCC6(C)C(CCC7(C)C6CCC68OC(O)C9(C(O)CC76C)C(OC(=O)C=Cc6ccccc6)C(OC(=O)c6ccccc6)C(C)(C)CC98)C5(C)C)C4OC4OC(CO)C(O)C(O)C4O)OC(CO)C(O)C3O)OC(C)C(O)C2O)C(O)C(O)C1O (stereo not shown) [Mb3] | 8 (≈ 5.22 µM) | –
CC1OC(OC2C(OC3C(OC4C(O)C(C(=O)O)OC(OC5CCC6(C)C(CCC7(C)C6CCC68OC(O)C9(C(O)CC76C)C(OC(=O)C=Cc6ccccc6)C(OC(=O)c6ccccc6)C(C)(C)CC98)C5(C)C)C4OC4OC(CO)C(O)C(O)C4O)OC(CO)C(O)C3O)OC(C)C(O)C2O)C(O)C(O)C1O (stereo not shown) [Mb4] | 15 (≈ 9.78 µM) | –
CC(C)C(=O)OC1C(OC(=O)c2ccccc2)C(C)(C)CC2C3=CCC4C5(C)CCC(OC6OC(C(=O)O)C(O)C(OC7OCC(O)C(O)C7O)C6OC6OC(CO)C(O)C(O)C6O)C(C)(C)C5CCC4(C)C3(C)CC(O)C21CO [Ba7, 3-O-[β-D-galactopyranosyl(1→2)]-β-D-xylopyranosyl (1→3)-β-D-glucuronopyranosyl-21-O-benzoyl, 22-O-isobutyryl-3β, 15α, 21β, 22α, 28-pentahydroxyolean-12-ene] | 11 (≈ 9.69 µM) | –
C/C=C(/C)C(=O)O[C@H]1[C@H](OC(=O)C(C)C)[C@@]2(CO)C(CC1(C)C)C1=CCC3[C@@]4(C)CC[C@H](O)C(C)(C)C4CC[C@@]3(C)[C@]1(C)[C@@H](O)[C@H]2O (stereo partly shown) [ACH-Y0] | 20 (≈ 30.4 µM) | –
CC1(C)CC2C3=CCC4C5(C)CCC(OC6OC(C(=O)O)C(O)C(OC7OCC(O)C(O)C7O)C6OC6OC(CO)C(O)C(O)C6O)C(C)(C)C5CCC4(C)C3(C)CC(O)C2(CO)C(O)C1OC1OCC(OC(=O)c2ccccc2)C(OC(=O)c2ccccc2)C1O [Ba9, 3-O-[β-D-galactopyranosyl(1→2)]-β-D-xylopyranosyl (1→3)-β-D-glucuronopyranosyl-21-O-[3,4-dibenzoyl-β-D-xylopyranosyl]-3β, 15α, 21β, 22α, 28-pentahydroxyolean-12-ene] | 12 (≈ 9.22 µM) | –
CC1(C)CC2C3=CCC4C5(C)CCC(OC6OC(C(=O)O)C(O)C(OC7OCC(O)C(O)C7O)C6OC6OC(CO)C(O)C(O)C6O)C(C)(C)C5CCC4(C)C3(C)CC(O)C2(CO)C(O)C1OC(=O)c1ccccc1 [Ba8, 3-O-[β-D-galactopyranosyl(1→2)]-β-D-xylopyranosyl (1→3)-β-D-glucuronopyranosyl-21-O-benzoyl-3β, 15α, 21β, 22α, 28-pentahydroxyolean-12-ene] | 20 (≈ 18.8 µM) | –
CC=C(C)C(=O)OC1C(OC(=O)c2ccccc2)C(C)(C)CC2C13C(O)CC1(C)C4(C)CCC5C(C)(C)C(OC6OC(C(=O)O)C(O)C(OC7OC(CO)C(O)C(O)C7OC7OC(C)C(O)C(O)C7OC7OC(C)C(O)C(O)C7O)C6OC6OC(CO)C(O)C(O)C6O)CCC5(C)C4CCC21OC3O (stereo not shown) [Mb6] | 10 (≈ 6.73 µM) | –
CC1O[C@@H](OC2[C@H](OC3[C@H](O[C@H]4C(O[C@@H]5OC(CO)[C@H](O)[C@@H](O)C5O)[C@H](O[C@H]5CC[C@@]6(C)C(CC[C@]7(C)C6CC[C@]68O[C@H](O)[C@]9(C6CC(C)(C)[C@@H](OC(=O)c6ccccc6)[C@@H]9OC(=O)C=Cc6ccccc6)[C@H](O)[C@H](O)[C@]87C)[C@@]5(C)CO)OC(C(=O)O)[C@H]4O)OC(CO)[C@H](O)[C@H]3O)OC(C)[C@H](O)[C@@H]2O)C(O)[C@@H](O)[C@H]1O (stereo partly shown) [Mb8] | 20 (≈ 12.8 µM) | –
C/C=C(/C)C(=O)O[C@H]1[C@H](O)[C@@]2(COC(=O)C(C)CC)C(CC1(C)C)C1=CCC3[C@@]4(C)CC[C@H](O)C(C)(C)C4CC[C@@]3(C)[C@]1(C)[C@@H](O)[C@H]2O (stereo partly shown) [ACH-Y7] | 65 (≈ 96.6 µM) | –
CC=C(C)C(=O)OC1C(OC(=O)C(C)=CC)C2(CO)C(O)CC3(C)C(=CCC4C5(C)CCC(O)C(C)(CO)C5CCC43C)C2CC1(C)C (stereo not shown) [ACH-Y8] | 35 (≈ 52.2 µM) | –
C/C=C(/C)C(=O)O[C@H]1[C@H](OC(=O)/C(C)=C/C)[C@@]2(CO)C(CC1(C)C)C1=CCC3[C@@]4(C)CC[C@H](O[C@@H]5OC(C(=O)O)[C@@H](O)C(O[C@@H]6OC[C@@H](O)C(O)C6O)C5O[C@@H]5OC(CO)[C@H](O)C(O)C5O)C(C)(C)C4CC[C@@]3(C)[C@]1(C)C[C@H]2O (stereo partly drawn) [Xanifolia Z12, 3-O-[β-D-galactopyranosyl(1→2)]-β-D-xylopyranosyl (1→3)-β-D-glucuronopyranosyl-21-O-angeloyl, 22-O-tigloyl-3β, 16α, 21β, 22α, 28-pentahydroxyolean-12-ene] | – | 16 (≈ 14.2 µM)
C/C=C(/C)C(=O)O[C@H]1[C@H](OC(=O)c2ccccc2)[C@@]2(CO)C(CC1(C)C)C1=CCC3[C@@]4(C)CC[C@H](O)C(C)(C)C4CC[C@@]3(C)[C@]1(C)[C@@H](O)[C@H]2O (stereo partly shown) [ACH-Z4] | 40 (≈ 57.7 µM) | –
C/C=C(/C)C(=O)O[C@H]1[C@H](OC(=O)/C(C)=C\C)[C@@]2(CO)C(CC1(C)C)C1=CCC3[C@@]4(C)CC[C@H](O)C(C)(C)C4CC[C@@]3(C)[C@]1(C)C[C@H]2O (stereo partly shown) [ACH-Y10] | 20 (≈ 30.5 µM) | –
C/C=C(/C)C(=O)O[C@H]1[C@H](OC(C)=O)C(C)(C)CC2C3=CCC4[C@@]5(C)CC[C@H](O)C(C)(C)C5CC[C@@]4(C)[C@]3(C)C[C@@H](O)[C@]21CO (stereo partly shown) [ACH-X] | 40 (≈ 65.1 µM) | –
CC=C(C)C(=O)OC1C(OC(=O)c2ccccc2)C(C)(C)CC2C3=CCC4C5(C)CCC(OC6OC(C(=O)O)C(O)C(OC7OCC(O)C(O)C7O)C6OC6OC(CO)C(O)C(O)C6O)C(C)(C)C5CCC4(C)C3(C)CC(O)C21CO [Ba3, 3-O-[β-D-galactopyranosyl(1→2)]-β-D-xylopyranosyl (1→3)-β-D-glucuronopyranosyl-21-O-benzoyl, 22-O-angeloyl-3β, 15α, 21β, 22α, 28-pentahydroxyolean-12-ene] | 8 (≈ 6.97 µM) | –
CC=C(C)C(=O)OC1C(OC(=O)c2ccccc2)C2(CO)C(CC1(C)C)C1=CCC3C4(C)CCC(OC5OC(C(=O)O)C(O)C(OC6OC(CO)C(O)C6O)C5OC5OC(CO)C(O)C(O)C5O)C(C)(C)C4CCC3(C)C1(C)C(O)C2O [Xanifolia Z4, 3-O-[β-D-galactopyranosyl(1→2)]-α-L-arabinofuranosyl(1→3)-β-D-glucuronopyranosyl-21-O-angeloyl, 22-O-benzoyl-3β, 15α, 16α, 21β, 22α, 28-hexahydroxyolean-12-ene] | 20 (≈ 17.2 µM) | –
CC1(C)CC2C3=CCC4C5(C)CCC(OC6OC(C(=O)O)C(O)C(OC7OCC(O)C(O)C7O)C6OC6OC(CO)C(O)C(O)C6O)C(C)(C)C5CCC4(C)C3(C)CC(O)C2(CO)C(OC(=O)c2ccccc2)C1OC(=O)c1ccccc1 [Ba5, 3-O-[β-D-galactopyranosyl(1→2)]-β-D-xylopyranosyl (1→3)-β-D-glucuronopyranosyl-21-O-benzoyl, 22-O-benzoyl-3β, 15α, 21β, 22α, 28-pentahydroxyolean-12-ene] | 16 (≈ 13.7 µM) | –
CC=C(C)C(=O)OC1C(OC(=O)C(C)=CC)C2(CO)C(CC1(C)C)C1=CCC3C4(C)CCC(O)C(C)(CO)C4CCC3(C)C1(C)C(O)C2O (stereo not shown) [ACH-Y2] | 35 (≈ 51 µM) | –
CC=C(C)C(=O)OC1C(OC(=O)C=Cc2ccccc2)C23C(O)CC4(C)C5(C)CCC6C(C)(C)C(OC7OC(C(=O)O)C(O)C(OC8OC(CO)C(O)C(O)C8OC8OC(C)C(O)C(O)C8OC8OC(C)C(O)C(O)C8O)C7OC7OC(CO)C(O)C(O)C7O)CCC6(C)C5CCC4(OC2O)C3CC1(C)C (stereo not shown) [Mb1] | 8 (≈ 5.29 µM) | –
